Results reported in patent US3944498A, “Germicidal detergent containing a thienyliodonium salt” (The Dow Chemical Company, priority 1973, dated 1976).

Assays:
[1] = system: S. aureus; test: Nutrient agar growth test, S. aureus (Example 3); type: cell-based; conditions: 0.001 percent by weight, 2 days, 35°C
Excerpt: (§1) The 4-chlorophenyl-2-thienyliodonium chloride, trifluoroacetate and trichloroacetate salts are dispersed in melted nutrient agar to produce culture media containing 0.001 percent by weight of one of the salt compounds. Such melted media are then poured into petri dishes and the solidified surface in each dish inoculated with a 24-hour broth culture, one of the organisms S. aureus and S. typhosa. In a check operation, petri dishes containing unmodified nutrient agar are each individually inoculated in the same manner with the named organisms. After two days' incubation at 35°C. the agar surface in each dish is examined for microbial growth. […] At the time of these observations the check dishes are found to support a heavy growth of the two named organisms.

[2] = system: Sprague-Dawley (Cox strain) rats; test: Oral median lethal dose in Sprague-Dawley (Cox strain) rats; type: in vivo; conditions: 708 mg/kg oral, 24 Hours
[3] = system: Sprague-Dawley (Cox strain) rats; test: as above; type: in vivo
Description: (§2) The oral median lethal dose (LD50) of ClPhThICl was also determined in Sprague-Dawley (Cox strain) rats within a weight range of 93 to 118 grams. Five groups of rats, each consisting of 10 males and 10 females, were given the compound in an aqueous 0.5 percent METHOCEL hydroxypropyl methylcellulose (4000 cps.) suspension at a concentration of 300 mg/ml. The compound was administered as a single oral dose at 0.2 logarithmic dose intervals (709, 1120, 1780, 2820, 4450 mg/kg), and the following mortality experience was noted:
(§3) The percent of total mortalities occurring was 53.9, 79.3, 85.7 and 93.6 at 6, 24, 48 and 72 hours post-treatment, respectively. The last death occurred between 72 and 96 hours post-treatment in male rats in the 1780 and 4450 mg/kg groups.

[4] = as above; type: in vivo; conditions: rat, in vivo, po; for LD50: 7 and 14 days
Description: as §2, §3

[5] = system: S. typhosa; test: Nutrient agar growth test, S. typhosa (Example 3); type: cell-based; conditions: 0.001 percent by weight, 2 days, 35°C
Excerpt: as §1

Clc1ccc([I+]c2cccs2)cc1.[Cl-] [4-Chlorophenyl-2-thienyliodonium chloride]
microbial growth on agar surface [1]: free of microbial growth | No. Dead ([2]; females): 0/10 | No. Dead ([2]; males): 1/10 | No. Dead ([3]; 708 mg/kg oral, 7 Days, females): 0/10 | No. Dead ([3]; 708 mg/kg oral, 7 Days, males): 1/10 | No. Dead ([3]; 708 mg/kg oral, 14 Days, females): 0/10 | No. Dead ([3]; 708 mg/kg oral, 14 Days, males): 1/10 | No. Dead ([3]; 1120 mg/kg oral, 7 Days, females): 6/10 | No. Dead ([3]; 1120 mg/kg oral, 7 Days, males): 2/10 | No. Dead ([3]; 1120 mg/kg oral, 14 Days, females): 6/10 | No. Dead ([3]; 1120 mg/kg oral, 14 Days, males): 2/10 | No. Dead ([3]; 1120 mg/kg oral, 24 Hours, females): 2/10 | No. Dead ([3]; 1120 mg/kg oral, 24 Hours, males): 1/10 | No. Dead ([3]; 1780 mg/kg oral, 7 Days, females): 7/10 | No. Dead ([3]; 1780 mg/kg oral, 7 Days, males): 9/10 | No. Dead ([3]; 1780 mg/kg oral, 14 Days, females): 7/10 | No. Dead ([3]; 1780 mg/kg oral, 14 Days, males): 9/10 | No. Dead ([3]; 1780 mg/kg oral, 24 Hours, females): 6/10 | No. Dead ([3]; 1780 mg/kg oral, 24 Hours, males): 4/10 | No. Dead ([3]; 2820 mg/kg oral, 7 Days, females): 10/10 | No. Dead ([3]; 2820 mg/kg oral, 7 Days, males): 8/10 | No. Dead ([3]; 2820 mg/kg oral, 14 Days, females): 10/10 | No. Dead ([3]; 2820 mg/kg oral, 14 Days, males): 8/10 | No. Dead ([3]; 2820 mg/kg oral, 24 Hours, females): 9/10 | No. Dead ([3]; 2820 mg/kg oral, 24 Hours, males): 8/10 | No. Dead ([3]; 4450 mg/kg oral, 7 Days, females): 10/10 | No. Dead ([3]; 4450 mg/kg oral, 7 Days, males): 10/10 | No. Dead ([3]; 4450 mg/kg oral, 14 Days, females): 10/10 | No. Dead ([3]; 4450 mg/kg oral, 14 Days, males): 10/10 | No. Dead ([3]; 4450 mg/kg oral, 24 Hours, females): 10/10 | No. Dead ([3]; 4450 mg/kg oral, 24 Hours, males): 9/10 | percent of total mortalities occurring ([3]; 6 hours post-treatment): 53.9% | percent of total mortalities occurring ([3]; 24 hours post-treatment): 79.3% | percent of total mortalities occurring ([3]; 48 hours post-treatment): 85.7% | percent of total mortalities occurring ([3]; 72 hours post-treatment): 93.6% | LD50 ([4]; female rats, 95% confidence limits 785-1540 mg/kg): 1100 mg/kg | LD50 ([4]; male rats, 95% confidence limits 1171-2296 mg/kg): 1640 mg/kg | LD50 at 24 h ([4]; female rats, 95% confidence limits 1230-2080 mg/kg): 1600 mg/kg | LD50 at 24 h ([4]; male rats, 95% confidence limits 1241-2610 mg/kg): 1800 mg/kg | microbial growth on agar surface [5]: free of microbial growth
